Experimental data as given in ChEMBL document CHEMBL5550200, “Back-Pocket Optimization of 2-Aminopyrimidine-Based Macrocycles Leads to Potent EPHA2/GAK Kinase Inhibitors” (J Med Chem, 2024).

Tests used:
[1] = molecular target: T1, Ephrin type-B receptor 1 (Homo sapiens) (UniProt P54762); assay: Induction of stabilization of recombinant EPHB1 (unknown origin) assessed as change in melting temperature by differential scanning fluorimetry assay
T1 sequence (whole entry): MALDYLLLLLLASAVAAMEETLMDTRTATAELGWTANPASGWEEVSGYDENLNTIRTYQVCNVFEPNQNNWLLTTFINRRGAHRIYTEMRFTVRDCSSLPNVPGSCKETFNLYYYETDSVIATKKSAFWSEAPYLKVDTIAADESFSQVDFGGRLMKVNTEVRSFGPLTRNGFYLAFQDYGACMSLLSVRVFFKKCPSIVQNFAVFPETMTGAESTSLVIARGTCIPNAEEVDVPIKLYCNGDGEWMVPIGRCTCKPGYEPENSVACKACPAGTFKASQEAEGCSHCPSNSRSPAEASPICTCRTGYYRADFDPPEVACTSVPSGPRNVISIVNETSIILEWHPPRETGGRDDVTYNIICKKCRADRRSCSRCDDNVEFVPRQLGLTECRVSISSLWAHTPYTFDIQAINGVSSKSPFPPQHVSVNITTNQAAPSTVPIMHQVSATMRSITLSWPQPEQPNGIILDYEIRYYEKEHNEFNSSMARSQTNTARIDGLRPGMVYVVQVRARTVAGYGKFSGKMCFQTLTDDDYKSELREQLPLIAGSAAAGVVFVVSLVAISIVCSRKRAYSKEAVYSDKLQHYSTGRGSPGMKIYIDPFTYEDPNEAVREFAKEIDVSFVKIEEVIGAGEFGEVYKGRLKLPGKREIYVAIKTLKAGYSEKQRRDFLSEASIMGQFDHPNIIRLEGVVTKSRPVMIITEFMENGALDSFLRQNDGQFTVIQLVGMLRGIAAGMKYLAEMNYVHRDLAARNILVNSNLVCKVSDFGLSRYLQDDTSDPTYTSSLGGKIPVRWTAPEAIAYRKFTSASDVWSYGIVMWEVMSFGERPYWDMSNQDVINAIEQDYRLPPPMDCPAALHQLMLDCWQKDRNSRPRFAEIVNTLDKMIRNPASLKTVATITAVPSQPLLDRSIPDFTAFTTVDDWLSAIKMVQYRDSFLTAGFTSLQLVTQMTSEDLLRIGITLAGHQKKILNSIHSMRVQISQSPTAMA

[2] = molecular target: T2, Ephrin type-B receptor 3 (Homo sapiens) (UniProt P54753); assay: Induction of stabilization of recombinant EPHB3 (unknown origin) assessed as change in melting temperature by differential scanning fluorimetry assay
T2 sequence (whole entry): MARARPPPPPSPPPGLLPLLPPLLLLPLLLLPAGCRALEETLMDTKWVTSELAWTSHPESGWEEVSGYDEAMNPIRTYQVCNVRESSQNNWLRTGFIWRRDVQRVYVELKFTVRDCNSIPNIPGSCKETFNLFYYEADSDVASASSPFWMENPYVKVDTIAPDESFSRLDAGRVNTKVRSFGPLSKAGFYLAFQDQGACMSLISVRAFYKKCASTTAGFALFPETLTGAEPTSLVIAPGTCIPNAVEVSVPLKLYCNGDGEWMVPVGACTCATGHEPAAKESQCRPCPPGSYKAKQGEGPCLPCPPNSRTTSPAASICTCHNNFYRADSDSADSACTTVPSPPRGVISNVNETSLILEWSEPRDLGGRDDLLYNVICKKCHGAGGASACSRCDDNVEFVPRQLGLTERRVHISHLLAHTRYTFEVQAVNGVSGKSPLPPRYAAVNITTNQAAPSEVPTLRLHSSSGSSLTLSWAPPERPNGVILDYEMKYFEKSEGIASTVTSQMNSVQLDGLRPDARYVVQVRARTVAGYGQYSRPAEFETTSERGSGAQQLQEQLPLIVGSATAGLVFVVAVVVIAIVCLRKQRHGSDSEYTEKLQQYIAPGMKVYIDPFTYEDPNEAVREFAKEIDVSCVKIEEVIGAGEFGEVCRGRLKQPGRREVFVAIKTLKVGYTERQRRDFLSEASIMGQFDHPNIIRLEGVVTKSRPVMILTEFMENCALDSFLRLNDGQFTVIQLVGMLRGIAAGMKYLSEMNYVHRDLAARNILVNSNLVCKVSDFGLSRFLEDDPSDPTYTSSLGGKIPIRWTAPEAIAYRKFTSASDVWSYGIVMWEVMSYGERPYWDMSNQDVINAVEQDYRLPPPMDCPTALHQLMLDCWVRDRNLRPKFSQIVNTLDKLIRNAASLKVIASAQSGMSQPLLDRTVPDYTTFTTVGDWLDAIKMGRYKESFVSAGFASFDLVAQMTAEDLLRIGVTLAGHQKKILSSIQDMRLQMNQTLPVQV

dengue virus type 2 = assay: Antiviral activity against DENV-2 New Guinea C infected in human Huh-7 cells assessed as reduction in virus induced cytopathic effect preincubated with cells for 1 hr followed by viral infection and measured after 45 to 48 hrs by luciferase assay; assay type: functional, organism-based; settings: for EC90: time 45-48 hrs
Huh-7 = assay: Cytotoxicity against human Huh-7 cells assessed as reduction in cell viability by alamar blue reagent based analysis; assay type: functional

Row | SMILES | deltaTm [1] [K] | deltaTm [2] [K] | EC50 (dengue virus type 2) [µM] | EC90 (dengue virus type 2) [µM] | CC50 (Huh-7) [µM]
1 | COc1c(F)ccc(-c2cnc3nc2NCCCNS(=O)(=O)c2cccc(c2)N3)c1F | 5.6 | 4.8 | 1.8 | 2.9 | 2.9
2 | COc1cc(-c2cnc3nc2NCCCNS(=O)(=O)c2cccc(c2)N3)c(F)cc1F | 3.3 | 3.9 | > 10 | > 10 | > 10
3 | COc1cc(-c2cnc3nc2NCCCNS(=O)(=O)c2cc(ccc2O)N3)ccc1F | 3.5 | 4.2 | > 10 | > 10 | > 10
4 | O=S1(=O)NCCCNc2nc(ncc2-c2ccc(Cl)c(Cl)c2)Nc2cccc1c2 | 2.2 | 3.2 | 3.7 | 9 | > 10
